The text below walks through data of patent publication US9273058B2 (BRISTOL-MYERS SQUIBB COMPANY, priority 2013, dated 2016).

What is called IC50 is the concentration that inhibits the measured activity by half.

This test concerns the target CK1δ (Homo sapiens, UniProt P48730). The test can be described thus: CK1δ kinase assay (Caliper LabChip electrophoretic separation of fluoresceinated peptide substrate and product). The format is biochemical. Conditions: 200 pM CK1δ, 50 μM ATP, 1.5 μM peptide, 22 hours at room temperature; read-out: CK1δ IC50 range. How it is done:
CK1ε and CK1δ Kinase Assays
The kinase assay was performed in V-bottom 384-well plates. […] The reaction was incubated at room temperature for 22 hours and terminated by adding 45 μl of 35 mM EDTA to each sample. The reaction mixture was analyzed on the Caliper LABCHIP®3000 (Caliper, Hopkinton, Mass.) by electrophoretic separation of the unphosphorylated substrate and phosphorylated product. […] Compounds were dissolved at 10 mM in dimethylsulfoxide (DMSO) and evaluated at eleven concentrations. IC50 values were derived by non-linear regression analysis.

CK1δ, sequence (P48730 whole entry): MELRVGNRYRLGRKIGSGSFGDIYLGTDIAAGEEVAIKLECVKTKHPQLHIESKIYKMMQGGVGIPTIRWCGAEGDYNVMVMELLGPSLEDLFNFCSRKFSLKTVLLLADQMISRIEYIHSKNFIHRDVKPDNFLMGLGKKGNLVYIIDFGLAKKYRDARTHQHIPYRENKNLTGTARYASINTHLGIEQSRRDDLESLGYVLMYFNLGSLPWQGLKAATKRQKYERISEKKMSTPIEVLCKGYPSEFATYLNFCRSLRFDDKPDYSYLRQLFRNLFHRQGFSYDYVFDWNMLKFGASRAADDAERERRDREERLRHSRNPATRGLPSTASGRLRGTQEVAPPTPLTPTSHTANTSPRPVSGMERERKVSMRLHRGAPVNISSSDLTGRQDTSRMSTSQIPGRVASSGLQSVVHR

Consider `N#Cc1ccc([C@H]2C[C@@H](NC(=O)N3CCn4nc(-c5ccc(F)c(Cl)c5)c(C(N)=O)c4C3)C2)cc1` [Compound 282, 2-(3-Chloro-4-fluorophenyl)-N^5-((1s,3s)-3-(4-cyanophenyl)cyclobutyl)-6,7-dihydropyrazolo[1,5-a]pyrazine-3,5(4H)-dicarboxamide], for which the concentration for half-maximal inhibition (IC50) fell in the range of 0.01 to 10 nM.

Take `CCC1(NC(=O)N2CCn3nc(-c4ccc(Cl)c(Cl)c4)c(C(N)=O)c3C2)CC(F)(F)C1` [Compound 301, 2-(3,4-Dichlorophenyl)-N^5-(1-ethyl-3,3-difluorocyclobutyl)-6,7-dihydropyrazolo[1,5-a]pyrazine-3,5(4H)-dicarboxamide]: the 50% inhibitory concentration (IC50) was 0.01 to 10 nM.

In the case of `NC(=O)c1c(-c2ccc(Cl)c(Cl)c2)nn2c1CN(C(=O)N[C@@H]1CC[C@@H]1C(F)F)CC2` [Compound 240, 2-(3,4-Dichlorophenyl)-N^5-((1R,2S)-2-(difluoromethyl)cyclobutyl)-6,7-dihydropyrazolo[1,5-a] pyrazine-3,5(4H)-dicarboxamide], the IC50 is 0.01 to 10 nM.

Regarding `CC(CF)(CF)NC(=O)N1CCn2nc(-c3cccc(Cl)c3)c(C(N)=O)c2C1` [Compound 211, 2-(3-Chlorophenyl)-N^5-(1,3-difluoro-2-methylpropan-2-yl)-6,7-dihydropyrazolo[1,5-a]pyrazine-3,5(4H)-dicarboxamide], the IC50 lay within 0.01 to 10 nM.

Regarding `CC(C)(C)NC(=O)N1Cc2c(C(N)=O)c(-c3ccc(F)c(Cl)c3)nn2C(CCO)C1` (single isomer, unassigned) [Compound A97, N^5-(tert-Butyl)-2-(3-chloro-4-fluorophenyl)-7-(2-hydroxyethyl)-6,7-dihydropyrazolo[1,5-a]pyrazine-3,5(4H)-dicarboxamide], the IC50 was in the range of 0.01 to 10 nM.

Regarding `CC(F)(F)C(C)(C)NC(=O)N1CCn2nc(-c3ccc(Cl)c(Cl)c3)c(C(N)=O)c2C1` [Compound 201, 2-(3,4-Dichlorophenyl)-N^5-(3,3-difluoro-2-methylbutan-2-yl)-6,7-dihydropyrazolo[1,5-a] pyrazine-3,5(4H)-dicarboxamide], the IC50 was 0.01 to 10 nM.

Take `NC(=O)c1c(-c2ccc(F)c(Cl)c2)nn2c1CN(C(=O)N[C@H]1C[C@@H]3[C@H](C1)C3(F)F)CC2` [Compound 198]: the IC50 was 0.01 to 10 nM.

Take “2-(3-Chloro-4-fluorophenyl)-N^5-(3,3-difluorocyclobutyl)-7-isopropyl-6,7-dihydropyrazolo[1,5-a]pyrazine-3,5(4H)-dicarboxamide [Compound A123]”: the IC50 is 10 to 100 nM.

In the case of `CC(CF)(CF)NC(=O)N1CCn2nc(-c3ccc(Cl)c(Cl)c3)c(C(N)=O)c2C1` [Compound 210, 2-(3,4-Dichlorophenyl)-N^5-(1,3-difluoro-2-methylpropan-2-yl)-6,7-dihydropyrazolo [1,5-a]pyrazine-3,5(4H)-dicarboxamide], the IC50 fell in the range of 0.01 to 10 nM.

For `NC(=O)c1c(-c2cccc(Cl)c2)nn2c1CN(C(=O)NC1CC(C(F)F)C1)CC2` (stereo not drawn) [Compound 256, 2-(3-Chlorophenyl)-N^5-(3-(difluoromethyl)cyclobutyl)-6,7-dihydropyrazolo[1,5-a]pyrazine-3,5(4H)-dicarboxamide], the IC50 lay within 0.01 to 10 nM.

Turning to `NC(=O)c1c(-c2ccc(F)c(Cl)c2)nn2c1CN(C(=O)NC1CC(C(F)F)C1)CC2` (single isomer, unassigned) [Compound 253, 2-(3-Chloro-4-fluorophenyl)-N^5-(3-(difluoromethyl)cyclobutyl)-6,7-dihydropyrazolo[1,5-a]pyrazine-3,5(4H)-dicarboxamide], the IC50 lay in the range of 0.01 to 10 nM.

In the case of `CO[C@H]1C[C@H](NC(=O)N2CCn3nc(-c4ccc(F)c(Cl)c4)c(C(N)=O)c3C2)C1` [Compound 192, 2-(3-Chloro-4-fluorophenyl)-N^5-((1r,3r)-3-methoxycyclobutyl)-6,7-dihydropyrazolo[1,5-a] pyrazine-3,5(4H)-dicarboxamide], the IC50 fell in the range of 0.01 to 10 nM.

On to `NC(=O)c1c(-c2cccc(Cl)c2)nn2c1CN(C(=O)NC1CC(C(F)F)C1)CC2` (stereo not drawn) [Compound 257, 2-(3-Chlorophenyl)-N^5-(3-(difluoromethyl)cyclobutyl)-6,7-dihydropyrazolo[1,5-a]pyrazine-3,5(4H)-dicarboxamide], for which the IC50 lay within 0.01 to 10 nM.

Turning to `CC(C)(NC(=O)N1CCn2nc(-c3ccc(Cl)c(Cl)c3)c(C(N)=O)c2C1)C1CC(F)(F)C1` [Compound 228, 2-(3,4-Dichlorophenyl)-N^5-(2-(3,3-difluorocyclobutyl)propan-2-yl)-6,7-dihydropyrazolo[1,5-a] pyrazine-3,5(4H)-dicarboxamide], the IC50 was 0.01 to 10 nM.

For the compound `NC(=O)c1c(-c2ccc(Cl)c(Cl)c2)nn2c1CN(C(=O)NC1CC3(CC3)C1)CC2` [Compound 207, 2-(3,4-Dichlorophenyl)-N^5-(spiro[2.3]hexan-5-yl)-6,7-dihydropyrazolo [1,5-a]pyrazine-3,5(4H)-dicarboxamide], the IC50 lay in the range of 0.01 to 10 nM.

Turning to `NC(=O)c1c(-c2cccc(Cl)c2)nn2c1CN(C(=O)NC(CF)(CF)CF)CC2` [Compound A41, 2-(3-Chlorophenyl)-N^5-(1,3-difluoro-2-(fluoromethyl)propan-2-yl)-6,7-dihydropyrazolo[1,5-a] pyrazine-3,5(4H)-dicarboxamide], the IC50 lay in the range of 0.01 to 10 nM.

Regarding `NC(=O)c1c(-c2ccc(F)c(Cl)c2)nn2c1CN(C(=O)NC1(COC(F)F)CCC1)CC2` [Compound 223, 2-(3-Chloro-4-fluorophenyl)-N^5-(1-((difluoromethoxy)methyl)cyclobutyl)-6,7-dihydropyrazolo[1,5-a]pyrazine-3,5(4H)-dicarboxamide], the IC50 is 0.01 to 10 nM.

Regarding `N#Cc1ccc(O[C@H]2C[C@H](NC(=O)N3CCn4nc(-c5ccc(Cl)c(Cl)c5)c(C(N)=O)c4C3)C2)cc1` [Compound 268, N^5-((1r,3r)-3-(4-Cyanophenoxy)cyclobutyl)-2-(3,4-dichlorophenyl)-6,7-dihydropyrazolo[1,5-a] pyrazine-3,5(4H)-dicarboxamide], the IC50 lay within 0.01 to 10 nM.

On to `Cc1cc(C)cc(-c2nn3c(c2C(N)=O)CN(C(=O)NC(C)(C)C)CC3)c1` [Compound 128, N^5-(tert-Butyl)-2-(3,5-dimethylphenyl)-6,7-dihydropyrazolo[1,5-a] pyrazine-3,5(4H)-dicarboxamide], for which the half-maximal inhibitory concentration (IC50) fell in the range of 10 to 100 nM.

In the case of `NC(=O)c1c(-c2ccc(F)c(Cl)c2)nn2c1CN(C(=O)NC13C4C5C1C1C3C4C51F)CC2` (stereo not drawn) [Compound A71, N^5-(4-Fluorocuban-1-yl)-2-(3-chloro-4-fluorophenyl)-6,7-dihydropyrazolo[1,5-a]pyrazine-3,5(4H)-dicarboxamide], the IC50 lay within 0.01 to 10 nM.

With `CC(F)(F)C(C)(C)NC(=O)N1CCn2nc(-c3cccc(Cl)c3)c(C(N)=O)c2C1` [Compound 174, 2-(3-Chlorophenyl)-N^5-(3,3-difluoro-2-methylbutan-2-yl)-6,7-dihydropyrazolo[1,5-a] pyrazine-3,5(4H)-dicarboxamide], the IC50 fell in the range of 0.01 to 10 nM.

With `NC(=O)c1c(-c2cccc(Cl)c2)nn2c1CN(C(=O)NC13CCC(F)(CC1)CC3)CC2` [Compound A75, 2-(3-Chlorophenyl)-N^5-(4-fluorobicyclo[2.2.2]octan-1-yl)-6,7-dihydropyrazolo[1,5-a]pyrazine-3,5(4H)-dicarboxamide], the IC50 fell in the range of 0.01 to 10 nM.

With `NC(=O)c1c(-c2ccc(F)c(Cl)c2)nn2c1CN(C(=O)NC13CCC(C(F)F)(CC1)CC3)CC2` [Compound A57, 2-(3-Chloro-4-fluorophenyl)-N^5-(4-(difluoromethyl)bicyclo[2.2.2]octan-1-yl)-6,7-dihydropyrazolo[1,5-a]pyrazine-3,5(4H)-dicarboxamide], the half-maximal inhibitory concentration (IC50) fell in the range of 0.01 to 10 nM.

On to `NC(=O)c1c(-c2ccc(F)c(Cl)c2)nn2c1CN(C(=O)NCC1CCC(F)(F)CC1)CC2` [Compound 194, 2-(3-Chloro-4-fluorophenyl)-N^5-((4,4-difluorocyclohexyl)methyl)-6,7-dihydropyrazolo[1,5-a] pyrazine-3,5(4H)-dicarboxamide], for which the half-maximal inhibitory concentration (IC50) is 0.01 to 10 nM.

`NC(=O)c1c(-c2ccc(F)c(Cl)c2)nn2c1CN(C(=O)N[C@@H]1CC[C@@H]1C(F)F)CC2` [Compound 238, 2-(3-Chloro-4-fluorophenyl)-N^5-((1R,2S)-2-(difluoromethyl)cyclobutyl)-6,7-dihydropyrazolo[1,5-a]pyrazine-3,5(4H)-dicarboxamide]: the IC50 was 0.01 to 10 nM.

In the case of `NC(=O)c1c(-c2ccc(F)c(Cl)c2)nn2c1CN(C(=O)N[C@@H]1C[C@@H]3[C@H](C1)C3(F)F)CC2` [Compound 197, 2-(3-Chloro-4-fluorophenyl)-N^5-((1R,3s,5S)-6,6-difluorobicyclo[3.1.0]hexan-3-yl)-6,7-dihydropyrazolo[1,5-a] pyrazine-3,5(4H)-dicarboxamide], the IC50 fell in the range of 0.01 to 10 nM.

As for `NC(=O)c1c(-c2ccc(F)c(Cl)c2)nn2c1CN(C(=O)NC13CCC(CC1)C3)CC2` [Compound A73, N^5-(Bicyclo[2.2.1]heptan-1-yl)-2-(3-chloro-4-fluorophenyl)-6,7-dihydropyrazolo[1,5-a]pyrazine-3,5(4H)-dicarboxamide], the IC50 was in the range of 0.01 to 10 nM.

Regarding `N#CC1(NC(=O)N2CCn3nc(-c4cccc(Cl)c4)c(C(N)=O)c3C2)CCC1` [Compound A43, 2-(3-Chlorophenyl)-N^5-(1-cyanocyclobutyl)-6,7-dihydropyrazolo[1,5-a]pyrazine-3,5(4H)-dicarboxamide], the IC50 was in the range of 0.01 to 10 nM.

Regarding `NC(=O)c1c(-c2cccc(Cl)c2)nn2c1CN(C(=O)N[C@@H]1CC[C@H]1COC(F)F)CC2` [Compound 242, 2-(3-Chlorophenyl)-N^5-((1R,2R)-2-((difluoromethoxy)methyl)cyclobutyl)-6,7-dihydropyrazolo[1,5-a] pyrazine-3,5(4H)-dicarboxamide], the IC50 lay within 0.01 to 10 nM.

`N#Cc1ccc(C23CCC(NC(=O)N4CCn5nc(-c6cccc(Cl)c6)c(C(N)=O)c5C4)(CC2)CC3)cc1` [Compound A74, 2-(3-Chlorophenyl)-N^5-(4-(4-cyanophenyl)bicyclo[2.2.2]octan-1-yl)-6,7-dihydropyrazolo[1,5-a]pyrazine-3,5(4H)-dicarboxamide]: the IC50 fell in the range of 0.01 to 10 nM.
